In ChEMBL document CHEMBL4359925, “Rational discovery of a highly novel and selective mTOR inhibitor” (Bioorg Med Chem Lett, 2019):

What was measured:
[1] = target: Phosphatidylinositol 4,5-bisphosphate 3-kinase catalytic subunit alpha isoform (Homo sapiens, UniProt P42336); assay: Inhibition of PI3K alpha (unknown origin)
[2] = target: Serine/threonine-protein kinase mTOR (Homo sapiens, UniProt P42345); assay: Inhibition of human mTOR measured after 30 mins in presence of ATP by Lanthascreen TR-FRET assay

Sequence of Phosphatidylinositol 4,5-bisphosphate 3-kinase catalytic subunit alpha isoform (P42336 whole entry, canonical isoform): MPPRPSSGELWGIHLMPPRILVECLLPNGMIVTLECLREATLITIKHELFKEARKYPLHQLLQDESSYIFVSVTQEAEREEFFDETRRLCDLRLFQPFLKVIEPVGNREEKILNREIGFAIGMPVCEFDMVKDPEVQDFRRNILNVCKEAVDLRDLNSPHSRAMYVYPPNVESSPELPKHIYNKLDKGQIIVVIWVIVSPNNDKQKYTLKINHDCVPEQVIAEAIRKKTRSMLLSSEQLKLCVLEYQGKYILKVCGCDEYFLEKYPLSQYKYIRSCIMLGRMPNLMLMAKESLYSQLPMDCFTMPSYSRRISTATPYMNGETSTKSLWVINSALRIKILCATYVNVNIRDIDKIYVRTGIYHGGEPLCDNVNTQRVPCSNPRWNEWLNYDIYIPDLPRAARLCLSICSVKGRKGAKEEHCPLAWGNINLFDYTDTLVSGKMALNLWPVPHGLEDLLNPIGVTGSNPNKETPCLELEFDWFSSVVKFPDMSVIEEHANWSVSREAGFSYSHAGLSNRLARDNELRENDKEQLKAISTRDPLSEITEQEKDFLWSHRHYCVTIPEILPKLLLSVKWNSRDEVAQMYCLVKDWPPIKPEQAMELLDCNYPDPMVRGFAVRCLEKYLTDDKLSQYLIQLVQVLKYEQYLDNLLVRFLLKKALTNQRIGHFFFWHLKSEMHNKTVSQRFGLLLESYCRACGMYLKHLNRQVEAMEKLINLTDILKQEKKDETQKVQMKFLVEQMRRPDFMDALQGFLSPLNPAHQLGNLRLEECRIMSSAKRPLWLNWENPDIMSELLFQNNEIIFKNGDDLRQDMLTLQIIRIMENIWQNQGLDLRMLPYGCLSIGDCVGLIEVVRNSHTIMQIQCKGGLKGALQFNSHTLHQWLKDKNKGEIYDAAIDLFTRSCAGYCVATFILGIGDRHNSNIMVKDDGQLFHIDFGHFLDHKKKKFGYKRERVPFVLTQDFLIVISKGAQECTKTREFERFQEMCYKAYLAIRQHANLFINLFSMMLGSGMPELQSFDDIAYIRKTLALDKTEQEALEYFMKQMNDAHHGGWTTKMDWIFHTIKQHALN

IC50 [1]	IC50 [2]	SMILES
5010 nM	5010 nM	CNC(=O)Nc1ccc(-c2nc(C)c3nc4n(c3n2)CCOC4)cc1
31.6 nM	316 nM	CNC(=O)Nc1ccc(-c2ncc3c(n2)N2CCOCC2C(=O)N3)cc1 (configuration not stated)
20 nM	31.6 nM	CNC(=O)Nc1ccc(-c2ncc3c(n2)N2CCOCC2C(=O)N3CC2CC2)cc1 (configuration not stated)
	< 31.6 nM	O=C(Nc1ccc(-c2nc(N3CCOCC3)c3c(n2)C2(CC2)OC3)cc1)NC1CC1
